According to patent US12558435B2, “Transient inhibition of p53 in gene therapy” (Ospedale San Raffaele S.R.L., priority 2018, dated 2026):

How the values were obtained:
[1] = biological target: ATM kinase (Homo sapiens, UniProt Q13315); settings: cited from earlier work
[2] = biological target: ATR (Homo sapiens, UniProt Q13535); settings: cited from earlier work
[3] = DMSO and ethanol; cited from earlier work
[4] = system: human CD34+ cells; format: cell-based; settings: for HDR efficiency (GFP+ cells): molecules added one day before viral transduction, FIG. 2B; for editing efficiency by molecular analyses on genomic DNA: human HSPC, FIG. 8B
Method: CD34+ cells were either freshly purified from human CB after obtaining informed consent and upon approval by the Ospedale San Raffaele Bioethical Committee, or purchased frozen from Lonza. CD34+ cells were edited according to a previously optimized protocol (Schiroli et al. 2017 supra).
Briefly, 5×10^5 CD34+ cells/ml were stimulated in serum-free StemSpan medium (StemCell Technologies) supplemented with penicillin, streptomycin, glutamine, 1 μM SR-1 (Biovision), […] (STEMCell Technologies), 10 μM PGE2 added only at the beginning of the culture (Cayman), and human early-acting cytokines (SCF 100 ng/ml, Flt3-L 100 ng/ml, TPO 20 ng/ml, and IL-6 20 ng/ml; all purchased from Peprotech). After 3 days of prestimulation, cells were washed with PBS and electroporated using P3 Primary Cell 4D-Nucleofector X Kit and program EO-100 (Lonza). Cells were electroporated with 2.5-1.25 μM of RNPs.
Transduction with AAV6 was performed at a dose of 1-2×10^4 vg/cell 15′ after electroporation. GSE56 mRNA was utilized were indicated at a dose of 150 μg/ml. Gene editing efficiency was measured from cultured cells in vitro 3 days after electroporation by flow cytometry measuring the percentage of cells expressing the GFP marker or by digital droplet PCR analysis designing primers and probe on the junction between the vector sequence and the targeted locus and on control sequences utilized as normalizer as previously described (Schiroli et al. 2017 supra).
For HDR ddPCR, primers and probes were designed on the junction between the vector sequence and the targeted locus and on control sequences used for normalization (human TTC5 genes). Thermal conditions for annealing and extension were adjusted for each specific application as follows: AAVS1/Intron 1 IL2RG HDR 3′ integration junction ddPCR: 55° C. for 30 sec, 72° C. for 2 min. Primers and probes for PCR and ddPCR amplifications are shown below.
CD34^+ cells were purchased frozen from Lonza. CD34^+ cells were edited according to a previously optimised protocol (Schiroli, G. et al (2017) Sci Transl Med 9). Briefly, 1-5×10^5 CD34^+ cells/ml were stimulated in serum-free StemSpan medium (StemCell Technologies) supplemented with penicillin, streptomycin, glutamine, 1 μM of the arylhydrocarbon receptor antagonist SR-1 (Biovision), […] of the pyrimidoindole-derivative UM171 (STEMCell Technologies), 10 μM of the 15-hydroxy PGDH competitive inhibitor dmPGE-2 added only at the beginning of the culture (Cayman), and human early-acting cytokines (SCF 100 ng/ml, Flt3-L 100 ng/ml, TPO 20 ng/ml, and IL-6 20 ng/ml; all purchased from Peprotech). After 3 days of pre-stimulation, cells were washed with PBS and electroporated using P3 Primary Cell 4D-Nucleofector X Kit and program EO-100 (Lonza). Cells were electroporated with 1-1.2 μM of RNPs. Where specified, electroporation mixture was supplemented with Ad5-E4orf1, Ad5-E4orf6/7 and GSE56/Ad5-E4orf6/7 mRNAs, which were respectively utilized at doses of 120, 80 and 200 μg/ml, or Ad5-E1B55K and Ad5-E4orf6 mRNAs were used at 120 and 80 μg/ml. All other adenoviral protein variants were used at standard dose 120 μg/ml. Transduction with AAV-6 was performed 15 min post-electroporation at dose of 1-5×10^4 vg/cell. Where specified, CD34+ cells were stimulated for shorter time in culture (0, 24 or 48 hours) and edited as described above. Gene editing efficiency was measured from cultured cells in vitro at 4 days post-editing by flow cytometry measuring the percentage of cells expressing the GFP reporter gene or by digital droplet PCR analysis designing primers and probe on the junction between the vector sequence and the targeted locus and on control sequence utilised as normaliser as previously described (Schiroli, G. et al (2017) Sci Transl Med 9) and Schiroli et al., Cell Stem Cell 2019. […]

[5] = system: human CD34+ cells; experiment: Cell growth curve of edited CD34+ cells; format: cell-based
[6] = system: human CD34+ cells; experiment: NHEJ by mismatch-sensitive endonuclease (T7 Endonuclease I) assay in edited CD34+ cells; format: cell-based; settings: bulk cells, 3 days after gene editing; FIG. 2C
Method: The percentage of insertions and deletion (indels) introduced by the Non Homologous End Joining (NHEJ) repair pathway on the nucleases target site was measured by a mismatch-sensitive endonuclease assay (PCR-based amplification of the targeted locus followed by digestion with T7 Endonuclease I; digested DNA fragments were resolved and quantified by capillary electrophoresis on LabChip GX Touch HT, Perkin Elmer) The levels of NHEJ-induced mutations were used as surrogate readout for scoring nucleases activity.
For molecular analyses, genomic DNA was isolated with DNeasy Blood & Tissue Kit or QIAamp DNA Micro Kit (QIAGEN) according to the number of cells available. Nuclease activity (IL2RG intron 1, AAVS1) was measured by mismatch-sensitive endonuclease assay by PCR-based amplification of the targeted locus followed by digestion with T7 Endonuclease I (NEB) according to the manufacturer's instructions. Digested DNA fragments were resolved and quantified by capillary electrophoresis on LabChip GX Touch HT (Perkin Elmer) according to the manufacturer's instructions.
For molecular analyses, genomic DNA was isolated with DNeasy Blood & Tissue Kit or QIAamp DNA Micro Kit (QIAGEN) according to the number of cells available. […] Digested DNA fragments were resolved and quantified by capillary electrophoresis on LabChip GX Touch HT (Perkin Elmer) according to the manufacturer's instructions.

[7] = biological target: T1, ATR (Mus musculus, UniProt Q9JKK8); settings: in 3T3TopBP1-ER cells; cited from earlier work
T1 construct: endogenous in cells; host or cells: 3T3TopBP1-ER cells

[8] = system: human CD34+ cells; experiment: CFU-C / colony forming cell assay of edited CD34+ cells; format: cell-based
[9] = system: human CD34+ cells; experiment: Cell cycle analysis by Hoechst 33342 staining; format: cell-based; settings: bulk treated cells; 12-24 hours; FIG. 14H
Method: Cell cycle was analysed by flow cytometry (CytoFLEX LX; Beckman Coulter) at 12-24 hours post-editing by collecting 0.5-1×10^5 total HSPCs in culture. Cells were washed with PBS+2% FBS and stained by using 10 μg/ml Hoechst 33342 (Sigma-Aldrich) in PBS+2% FBS for 0.5-1 hour in final volume equal to 200 μl.

[10] = system: human CD34+ cells transplanted into NSG mice; experiment: Xenotransplantation of edited human CD34+ cells in NSG mice; format: in vivo; settings: AAVS1; T0eq=3×10^5/mouse; FIG. 17B
Method: For transplantation, 3×10^5 CD34+ cells treated for editing at day 5 of culture were injected intravenously into NSG mice after sub-lethal irradiation (150-180 cGy). Sample size was determined by the total number of available treated cells. Mice were attributed to each experimental group randomly. Human CD45+ cell engraftment and the presence of gene-edited cells were monitored by serial collection of blood from the mouse tail and, at the end of the experiment (>20 weeks after transplantation), BM and spleen were harvested and analyzed.
NOD-SCID-IL2Rg^−/− (NSG) mice were purchased from The Jackson Laboratory and were maintained in specific-pathogen-free (SPF) conditions. The procedures involving animals were designed and performed with the approval of the Animal Care and Use Committee of the San Raffaele Hospital (IACUC #749) and communicated to the Ministry of Health and local authorities according to Italian law. For transplantation, 1.5-3×10^5 (for primary) or 2×10^6 (for secondary) CD34^+ treated cells at 24 hours post-editing protocol were injected intravenously into NSG mice after sub-lethal irradiation (180 cGy). Sample size was determined by the total number of available treated cells. Mice were attributed to each experimental group randomly. Human CD45^+ cell engraftment and the percentage of edited GFP^+ cells were monitored by serial collection of blood from the mouse tail over the weeks post-transplantation and at the end of the experiment (18-20 weeks post-transplantation) both spleen and bone-marrow were harvested and analysed.

Chain of ATR (Homo sapiens, UniProt Q13535) (Q13535 whole entry): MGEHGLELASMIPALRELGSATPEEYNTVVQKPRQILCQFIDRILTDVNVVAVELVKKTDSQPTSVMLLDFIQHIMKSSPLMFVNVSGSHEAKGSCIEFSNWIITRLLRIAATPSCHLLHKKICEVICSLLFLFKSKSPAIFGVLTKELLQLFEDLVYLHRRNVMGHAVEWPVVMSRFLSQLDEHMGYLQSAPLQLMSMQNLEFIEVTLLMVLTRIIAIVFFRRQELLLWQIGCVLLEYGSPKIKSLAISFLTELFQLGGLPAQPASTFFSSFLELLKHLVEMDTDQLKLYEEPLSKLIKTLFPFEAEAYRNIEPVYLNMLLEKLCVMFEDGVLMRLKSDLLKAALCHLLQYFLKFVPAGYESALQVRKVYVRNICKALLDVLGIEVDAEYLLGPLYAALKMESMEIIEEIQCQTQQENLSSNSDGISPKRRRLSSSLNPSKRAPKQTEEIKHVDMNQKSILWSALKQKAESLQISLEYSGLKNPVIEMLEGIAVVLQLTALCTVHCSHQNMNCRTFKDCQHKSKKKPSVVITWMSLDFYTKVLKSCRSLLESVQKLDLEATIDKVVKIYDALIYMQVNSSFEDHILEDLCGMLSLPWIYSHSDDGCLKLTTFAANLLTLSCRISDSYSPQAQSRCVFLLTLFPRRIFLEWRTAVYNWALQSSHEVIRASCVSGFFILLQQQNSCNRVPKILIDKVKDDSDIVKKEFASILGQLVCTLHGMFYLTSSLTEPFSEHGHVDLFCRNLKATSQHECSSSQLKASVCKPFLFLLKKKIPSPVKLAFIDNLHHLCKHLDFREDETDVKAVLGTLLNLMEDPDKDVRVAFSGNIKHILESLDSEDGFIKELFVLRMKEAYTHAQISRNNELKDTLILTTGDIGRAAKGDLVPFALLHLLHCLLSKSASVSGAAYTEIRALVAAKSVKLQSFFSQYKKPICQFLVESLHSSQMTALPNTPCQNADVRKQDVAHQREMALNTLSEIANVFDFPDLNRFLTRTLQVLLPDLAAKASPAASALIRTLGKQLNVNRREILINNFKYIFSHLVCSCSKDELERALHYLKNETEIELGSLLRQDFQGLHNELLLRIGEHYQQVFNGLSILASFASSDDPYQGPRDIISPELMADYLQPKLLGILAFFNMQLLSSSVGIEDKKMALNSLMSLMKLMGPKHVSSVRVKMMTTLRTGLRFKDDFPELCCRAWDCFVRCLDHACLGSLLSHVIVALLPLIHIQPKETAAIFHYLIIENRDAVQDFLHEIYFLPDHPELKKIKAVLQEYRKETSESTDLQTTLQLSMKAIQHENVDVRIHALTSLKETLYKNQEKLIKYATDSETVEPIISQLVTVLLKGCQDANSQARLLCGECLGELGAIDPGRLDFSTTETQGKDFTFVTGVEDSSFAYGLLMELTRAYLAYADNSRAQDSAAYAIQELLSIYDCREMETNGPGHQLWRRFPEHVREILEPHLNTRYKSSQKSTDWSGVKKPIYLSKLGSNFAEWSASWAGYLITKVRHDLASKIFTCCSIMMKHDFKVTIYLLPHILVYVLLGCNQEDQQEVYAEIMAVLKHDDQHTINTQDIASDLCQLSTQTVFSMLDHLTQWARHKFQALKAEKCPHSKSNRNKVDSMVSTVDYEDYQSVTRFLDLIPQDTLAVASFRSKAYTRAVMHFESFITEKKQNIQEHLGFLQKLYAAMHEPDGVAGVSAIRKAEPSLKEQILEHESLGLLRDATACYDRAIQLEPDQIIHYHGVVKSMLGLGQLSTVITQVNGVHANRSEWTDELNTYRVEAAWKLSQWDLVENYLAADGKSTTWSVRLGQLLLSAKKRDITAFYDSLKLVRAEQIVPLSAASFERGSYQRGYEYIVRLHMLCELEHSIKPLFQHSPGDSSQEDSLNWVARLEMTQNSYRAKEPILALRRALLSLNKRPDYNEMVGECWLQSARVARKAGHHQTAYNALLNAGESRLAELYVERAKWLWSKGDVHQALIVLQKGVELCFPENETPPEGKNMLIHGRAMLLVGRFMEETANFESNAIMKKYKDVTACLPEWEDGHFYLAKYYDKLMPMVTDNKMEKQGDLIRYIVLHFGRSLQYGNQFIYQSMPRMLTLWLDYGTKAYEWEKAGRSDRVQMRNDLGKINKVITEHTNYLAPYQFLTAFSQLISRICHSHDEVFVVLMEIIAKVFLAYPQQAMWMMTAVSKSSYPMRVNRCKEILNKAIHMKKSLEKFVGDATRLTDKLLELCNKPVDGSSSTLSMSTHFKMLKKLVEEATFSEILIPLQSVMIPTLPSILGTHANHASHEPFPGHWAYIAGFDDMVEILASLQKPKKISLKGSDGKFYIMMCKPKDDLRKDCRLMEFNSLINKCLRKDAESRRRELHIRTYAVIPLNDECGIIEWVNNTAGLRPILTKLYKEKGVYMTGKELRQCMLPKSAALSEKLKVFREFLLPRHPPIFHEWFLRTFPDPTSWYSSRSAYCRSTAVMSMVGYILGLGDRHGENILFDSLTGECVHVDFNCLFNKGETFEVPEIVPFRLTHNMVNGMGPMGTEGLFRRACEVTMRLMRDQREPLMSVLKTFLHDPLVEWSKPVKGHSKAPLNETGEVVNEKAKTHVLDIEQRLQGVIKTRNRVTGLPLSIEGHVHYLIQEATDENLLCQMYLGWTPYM
Chain of ATR (Homo sapiens, UniProt Q13535) (Q8WXE1 whole entry partner): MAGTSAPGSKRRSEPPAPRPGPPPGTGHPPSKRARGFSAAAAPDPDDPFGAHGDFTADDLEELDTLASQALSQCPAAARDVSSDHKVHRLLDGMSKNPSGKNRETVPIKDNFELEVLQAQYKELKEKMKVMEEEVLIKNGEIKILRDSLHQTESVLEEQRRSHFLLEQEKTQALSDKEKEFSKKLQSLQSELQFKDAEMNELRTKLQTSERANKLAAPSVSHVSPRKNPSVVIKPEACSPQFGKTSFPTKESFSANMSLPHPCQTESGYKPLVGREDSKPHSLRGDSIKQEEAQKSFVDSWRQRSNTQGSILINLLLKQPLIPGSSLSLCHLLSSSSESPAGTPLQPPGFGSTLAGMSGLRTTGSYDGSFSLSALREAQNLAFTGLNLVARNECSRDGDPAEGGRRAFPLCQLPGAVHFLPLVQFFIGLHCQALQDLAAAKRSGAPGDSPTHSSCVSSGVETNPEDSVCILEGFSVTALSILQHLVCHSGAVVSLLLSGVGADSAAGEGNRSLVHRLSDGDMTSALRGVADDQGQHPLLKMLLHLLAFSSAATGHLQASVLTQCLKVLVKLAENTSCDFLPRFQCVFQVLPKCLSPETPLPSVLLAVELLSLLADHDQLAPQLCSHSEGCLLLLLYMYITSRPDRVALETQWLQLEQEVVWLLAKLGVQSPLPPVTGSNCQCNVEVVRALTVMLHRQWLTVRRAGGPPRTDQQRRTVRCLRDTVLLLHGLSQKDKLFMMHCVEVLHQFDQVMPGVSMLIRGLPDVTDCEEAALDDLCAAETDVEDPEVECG

O=C(NC(NC(=S)Nc1ccc(F)c([N+](=O)[O-])c1)C(Cl)(Cl)Cl)C(c1ccccc1)c1ccccc1 (stereo not shown) [CGK 733]
IC50 [1]: ~200 nM
IC50 [2]: ~200 nM

O=c1cc(-c2cccc3c2Sc2ccccc2S3)oc(N2CCOCC2)c1 [KU-55933]
solubility [3]: soluble in DMSO and ethanol

N=c1sc2c(n1CC(=O)c1ccc([N+](=O)[O-])cc1)CCCC2 [pifithrin-α p-nitro, reference compound]
HDR efficiency (GFP+ cells) ([4]; 3 days after gene editing): increase in HDR efficiency

Cc1ccc(C(=O)Cn2c3c(sc2=N)CCCC3)cc1 [pifithrin-α, reference compound]
HDR efficiency (GFP+ cells) ([4]; 3 days after gene editing): increase in HDR efficiency

E1B55K and E4orf6: combination of adenoviral proteins E1B55K (SEQ ID No. 15) and E4orf6 (SEQ ID No. 13), delivered as mRNAs
GFP expression from the AAV6 donor ([4]; FIG. 15A): increased significantly the GFP expression
HDR-mediated integrations at the targeted AAVS1 locus compared to standard ([4]; FIG. 15B): reducing HDR-mediated integrations
editing efficiency by molecular analyses on genomic DNA [4]: not effective in increasing the editing efficiency
transient increase in the fraction of GFP+ cells ([4]; mainly most primitive HSPC compartment, AAVS1, FIG. 8A): up to 1.45 fold
growth curve of treated cells ([5]; FIG. 8D): lower compared to the standard

Cc1ccc(-c2cn3c4c(sc3n2)CCCC4)cc1 [pifithrin-α cyclic, reference compound]
cellular toxicity [4]: lowest cellular toxicity
increase in gene editing in the most primitive CD34+ CD133+ CD90+ cell compartment ([4]; 3 days after gene editing, FIG. 2C): two-fold
HDR efficiency (GFP+ cells) ([4]; 3 days after gene editing): increase in HDR efficiency
increase in DNA repair by NHEJ [6]: two-fold

Cn1c(=O)n(-c2ccc(C(C)(C)C#N)cc2)c2c3cc(-c4cnc5ccccc5c4)ccc3ncc21 [BEZ235]
IC50 [7]: ~21 nM

COc1cc2ncnc(-n3nc(-c4ccccn4)nc3N)c2cc1OC [CP-466722]
effect on ATR [2]: does not affect ATR

B1: E4orf1: adenoviral protein from adenovirus serotype 5 E4 gene (SEQ ID No. 1), delivered as mRNA (protein)
chain: MAAAVEALYVVLEREGAILPRQEGFSGVYVFFSPINFVIPPMGAVMLSLRLRVCIPPGYFGRFLALTDVNQPDVFTESYIMTPDMTEELSVVLFNHGDQFFYGHAGMAVVRLMLIRVVFPVVRQASNV
modifications: delivered as mRNA; example amino acid sequence of Ad5-E4orf1
targeting efficiency versus mRNA dose ([4]; AAVS1, different mRNA doses, FIG. 6D): dose dependent increase in the targeting efficiency
increase of GFP expression compared to standard RNP+AAV6 ([4]; AAVS1, most primitive compartment (CD34+133+90+ / CD90+), 96 hours, FIG. 14C): up to 1.3 fold
mean increase in the percentage of targeted primitive HSPC ([4]; best performing mRNA dose, AAVS1, FIG. 6D): 1.5 fold
editing efficiency by molecular analyses on genomic DNA [4]: reproducibly able to boost editing
mean increase in the fraction of GFP+ cells compared to the standard ([4]; side-by-side, AAVS1, 4 days, FIG. 7A): 1.2 fold
increase in number of myeloid and erythroid colony forming units (CFU) compared to standard ([8]; FIG. 7C): 3 fold
erythroid and myeloid clonogenic output compared to standard protocol ([8]; FIG. 14G): improved
number of colonies ([8]; among E4orf1 serotype variants, FIG. 21D): highest number of colonies
cell cycle states (G1 to S/G2/M) [9]: lower and not significant
human CD45+ cell engraftment in bloodstream, between groups [10]: did not show any statistical significance
growth curve of treated cells compared to standard and E4orf6/7 alone ([5]; FIG. 7D): 4 fold
cell growth compared to standard RNP+AAV6 ([5]; days post-editing, FIG. 14B): about 2 fold
